Columns and labels:
[1] = system: satiated Wistar rats; assay: Food intake in satiated Wistar rats after i.c.v. administration; assay type: in vivo, rat; conditions: 10 μg i.c.v.
Procedure: FIG. 6 illustrates food consumption in satiated Wistar rats during the first hour of the test session (i.e., Day 2) following i.c.v. administration of vehicle (5 μL)+vehicle (5 μL), vehicle (5 μl)+R3/I5 (10 μg), R3(BΔ23-27)R/I5 (10 μg)+vehicle (5 μl), and R3(BΔ23-27)R/I5 (10 μg)+R3/I5 (10 μg) (mean±SEM; n=5-6 per group) (A).
Experimentally naïve, male Wistar rats (Charles River, Wilmington, Mass.) weighing 200-225 grams at the time of arrival were used. The animals were initially housed at two per cage and given a one-week acclimation period to the vivarium prior to i.c.v. cannula implantation. All animals had free access to food and water throughout the experiment and were not food deprived prior to behavioral testing. The animal colony was maintained at 22±2° C. during a 12-hr light/12-hr dark illumination cycle with lights on from 0600 to 1800 hours. […]
A predetermined amount of standard rat chow (Formulab Diet No. 5008, which contained 23.0% protein and 6.5% fat) was placed in the food hopper at the start of the 4 hr session(s). The amount of food remaining in the food hopper was determined by subtracting the weight of the food at 1 and 4 hrs from the initial food weight (i.e., weight of the food at the start of the session). Food crumbs detected on the floor of the apparatus were included in the determination of food weights. […]

[2] = biological target: T1, endogenous GPCR135 from rat brain slices (Rattus norvegicus, UniProt Q5Y987); assay: Autoradiography, displacement of 125I-R3/I5 binding on rat brain slices; conditions: at 10 nM
T1 construct: using endogenous GPCR135 from rat brain slices in autoradiographic studies; from tissue; host or cells: rat brain slices
T1 sequence (Q5Y987 1-469): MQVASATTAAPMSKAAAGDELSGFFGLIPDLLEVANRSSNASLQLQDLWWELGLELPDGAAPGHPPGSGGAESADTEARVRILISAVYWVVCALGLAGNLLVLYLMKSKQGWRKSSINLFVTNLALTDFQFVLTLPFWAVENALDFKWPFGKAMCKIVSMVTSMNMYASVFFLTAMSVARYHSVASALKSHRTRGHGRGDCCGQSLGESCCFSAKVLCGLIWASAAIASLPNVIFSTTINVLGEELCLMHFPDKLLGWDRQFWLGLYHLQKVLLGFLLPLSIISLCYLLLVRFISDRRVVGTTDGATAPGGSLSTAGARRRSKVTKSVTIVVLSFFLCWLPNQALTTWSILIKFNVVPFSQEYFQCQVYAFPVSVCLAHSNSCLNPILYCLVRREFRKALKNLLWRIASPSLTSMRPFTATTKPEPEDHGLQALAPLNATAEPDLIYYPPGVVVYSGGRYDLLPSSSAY
Procedure: FIG. 5 provides autoradiograms of ^125I-R3/I5 binding sites in the rat brain (A) with competition by relaxin-3 (10 nM, B) or R3(BΔ23-27)R/I5 (10 nM, C), and a dose-response curve for R3(BΔ23-27)R/I5 as the competitor in the binding assay on rat brain slices (D). A dose-response curve for human relaxin-3 is included for comparison (D). Nonspecific binding was determined using 1 μM unlabeled relaxin-3.
R3(BΔ23-27)R/I5 peptide was evaluated pharmacologically using endogenous GPCR135 from rat brain slices in autoradiographic studies as described by Sutton et al., 2004. Briefly, ^125I-R3/I5 was applied in a binding buffer to rat brain slices. Unlabeled human relaxin-3 or R3(BΔ23-27)R/I5 was used at various concentrations as competitors to displace GPCR135 binding of ^125I-R3/I5.

**Q.** How did the “total food intake over 4 hours” value ([1]; 4 hours) turn out when “R3/I5: Chimeric peptide of relaxin-3 B-chain (SEQ ID NO:12) and INSL5 A-chain (SEQ ID NO:19); selective GPCR135 agonist (beta RAAPYGVRLCGREFIRAVIFTCGGSRW; alpha EDLQTLCCTDGCSMTDLSALC; INSL5 A-chain; listed as Homo Sapiens)” was run?
**A.** The value was “food intake was stimulated”.

**Q.** And the “food intake, first hour” value ([1]; first hour)?
**A.** Its value is “food intake was stimulated”.

**Q.** “Relaxin-3: Wild type human relaxin-3, B-chain SEQ ID NO:12, A-chain SEQ ID NO:13; positive control” was tested. Which “displacement of 125I-R3/I5 binding sites in rat brain sections” value [2] did it give?
**A.** The value was “Full displacement”.

From patent publication US8299028B2, “Chimeric peptide antagonist for GPCR135 or GPCR142” (Janssen Pharmaceutica NV, priority 2007, dated 2012)
